Where a name gives a salt, the structure may show the parent alone.
Assays:
[1] = test system: RAK2683 yeast strain; conditions: glucose not added to BM culture medium; 2% ethanol, 2% glycerol or 0.1 to 2% albumin; 24 hours
Experimental: OD600 was measured after RAK2683 yeast strain had been cultivated for 24 hours in a culture medium in which between 0.1 and 2% albumin had been added to the BM culture medium.

[2] = test system: RAK3599 strain; assay: Vitamin and FeCl3 concentration in AKD′ culture medium (FIGS. 22 to 28); assay type: cell-based, Saccharomyces cerevisiae; conditions: for proliferation at a content of 0: AKD′ culture medium without the substance
Experimental: (§1) In a case where no special provisions are made, a procedure for a cultivation experiment using the culture medium to be investigated for proliferation was such that a yeast undergoing investigation was pre-cultured in a YPD liquid culture medium at 28° C. for 24 hours, after which the yeast was adjusted such that OD600=20. […] In addition, OD600 was measured every 15 minutes by a spectrophotometer (Cell density meter co8000, WPA). Hereafter, data is represented by graphs for a case using the automatic spectrophotometer; however, these graphs are primarily used to compare the slope of logarithmic growth phase proliferation curves for each culture medium, and because OD600 is measured without dilution, values where OD600=3 to 3.5 or more may be incorrect.
Pyridoxine concentration in the AKD′ culture medium was adjusted to 0, 0.004, 0.04, 0.4, 4, and 40 μg/mL, respectively, and proliferation of the RAK3599 strain was investigated.
Pantothenic acid concentration in the AKD′ culture medium was adjusted to 0, 0.004, 0.04, 0.4, 4, and 40 μg/mL, respectively, and proliferation of the RAK3599 strain was investigated.
Thiamine concentration in the AKD′ culture medium was adjusted to 0, 0.004, 0.04, 0.4, 4, and 40 μg/mL, respectively, and proliferation of the RAK3599 strain was investigated.
Nicotinic acid concentration in the AKD′ culture medium was adjusted to 0, 0.004, 0.04, 0.4, 4, and 40 μg/mL, respectively, and proliferation of the RAK3599 strain was investigated.
Myo-inositol concentration in the AKD′ culture medium was adjusted to 0, 0.02 μg/mL, 0.2 μg/mL, 2 μg/mL, 20 μg/mL, and 200 μg/mL, respectively, and proliferation of the RAK 3599 strain was investigated.
FeCl3 concentration in the AKD′ culture medium was adjusted to 0, 0.002, 0.02, 0.2, 2, and 20 μg/mL, respectively, and proliferation of the RAK3599 strain was investigated.

[3] = test system: Candida glabrata BY23876 strain; assay: Nutritional requirements in AYD culture medium (FIG. 50); assay type: cell-based; conditions: component eliminated from AYD culture medium
Experimental: In a case where no special provisions are made, a procedure for a cultivation experiment using the culture medium to be investigated for proliferation was such that a yeast undergoing investigation was pre-cultured in a YPD liquid culture medium at 28° C. for 24 hours, after which the yeast was adjusted such that OD600=20. Thereafter, 5 μL of culture solution was inoculated in 5 mL of each culture medium to be investigated, which had been dispensed into L-shaped test tubes (final OD60=0.02); aerobic roller tube culture was performed at 28° C.; and OD was continuously measured with an automatic spectrophotometer (BioPhoto recorder TVS062CA, […]). In addition, OD600 was measured every 15 minutes by a spectrophotometer (Cell density meter co8000, WPA). Hereafter, data is represented by graphs for a case using the automatic spectrophotometer; however, these graphs are primarily used to compare the slope of logarithmic growth phase proliferation curves for each culture medium, and because OD600 is measured without dilution, values where OD600=3 to 3.5 or more may be incorrect.
Nutritional requirements of each of the following yeast strains were investigated in the AYD culture medium, and utility of the AYD culture medium was confirmed. Each of the yeast strains was cultured under identical conditions using the basic culture method described above.

[4] = test system: RAK2683 yeast strain; assay: Candidate proliferation factors added to BM culture medium (FIG. 4); assay type: cell-based, Saccharomyces cerevisiae; conditions: 24 hours
Experimental: Next, the yeast extract (M<5000) was further fractionated and proliferation was tested. […] As the substances having a molecular weight of roughly 500<M<1000, Acetyl-CoA, CoA, yeast RNA (RNA), and NAD were selected; each was added to a BM culture medium; and RAK2683 yeast strain was cultivated for 24 hours, after which OD600 was measured. Moreover, the yeast extract (YE)-added culture medium and YPD culture medium were treated as positive controls.

[5] = test system: Candida utilis JCM9624 strain; assay: Nutritional requirements in AYD culture medium (FIG. 51); assay type: cell-based; conditions: component eliminated from AYD culture medium
Experimental: as §1
(§2) Each of the yeast strains was cultured under identical conditions using the basic culture method described above.

[6] = test system: Candida albicans JCM1542 strain; assay: Nutritional requirements in AYD culture medium (FIG. 52); assay type: cell-based; conditions: component eliminated from AYD culture medium
Experimental: as §1, §2

[7] = test system: commercially available baker's yeast; assay: Investigation of carbon source added instead of glucose in BM culture medium (FIG. 5); assay type: cell-based; conditions: 2% added singly instead of glucose in BM culture medium, 28° C., 24 hours
Experimental: OD600 was measured after commercially available baker's yeast had been cultivated at 28° C. for 24 hours in a culture medium in which 2% of sugars such as galactose, raffinose, trehalose, fructose, maltose, mannose, sucrose, and ribose, or DNA (negative control) had been added instead of glucose in the BM culture medium.

[8] = test system: Saccharomyces cerevisiae leucine-requiring RAK778 strain (BY4712 (leu2Δ0) strain); assay: Leucine concentration in AKD culture medium, leucine-requiring strain (FIG. 16A); assay type: cell-based
Description: Leucine concentration in the AKD culture mediums was adjusted to 0%, 0.0001%, 0.001%, 0.01%, 0.1%, and 1%, respectively, and proliferation of a Saccharomyces cerevisiae leucine-requiring RAK778 strain (BY4712 (leu2Δ0) strain) was investigated. […] Given the above-noted results, a preferred leucine concentration was understood to be around 0.1%.

[9] = test system: Saccharomyces cerevisiae RAK3599 strain; assay: Leucine concentration in AKD culture medium, RAK3599 strain (FIG. 16B); assay type: cell-based
[10] = test system: RAK2683 yeast strain; assay: Investigation of nitrogen source used singly in MM culture medium instead of ammonium sulfate (Table 4); assay type: cell-based, Saccharomyces cerevisiae; conditions: Table 4 conditions
[11] = test system: commercially available baker's yeast; assay: Aspartic acid swapped with ammonium sulfate, compared with MM and YPD (FIG. 2); assay type: cell-based; conditions: between 0.5 and 2.0% aspartic acid added
Experimental: In Table 4, a culture medium was prepared in which aspartic acid (Asp), which had the highest value for OD600 after 48 hours, was swapped with ammonium sulfate, and the proliferation of yeast (commercially available baker's yeast) in the MM culture medium and YPD was compared. […] Based on this information, a BM culture medium in which 2% aspartic acid had been added as a nitrogen source to 0.17% YNB and 2% glucose was used as an object of investigation.

Compound: CCO [ethanol]
- proliferation as carbon source [1]: almost no proliferation

Compound: albumin
- proliferation as carbon source [1]: almost no proliferation

Compound: O=C(O)c1cccnc1 [nicotinic acid]
- concentration at which proliferation reached a maximum value ([2]; AKD′ culture medium): 4 µg/mL
- concentration at which proliferation was inhibited ([2]; AKD′ culture medium): 40 µg/mL
- preferred concentration ([2]; AKD′ culture medium): around 4000 μg/L
- proliferation at a content of 0 [2]: A significant degree of proliferation
- OD600 after 24 hours ([2]; AKD′ culture medium, nicotinic acid 0 μg/mL): 9
- OD600 after 24 hours ([2]; AKD′ culture medium, nicotinic acid 0.004 μg/mL): 10
- OD600 after 24 hours ([2]; AKD′ culture medium, nicotinic acid 0.04 μg/mL): 10
- OD600 after 24 hours ([2]; AKD′ culture medium, nicotinic acid 0.4 μg/mL): 9
- OD600 after 24 hours ([2]; AKD′ culture medium, nicotinic acid 4 μg/mL): 10
- OD600 after 24 hours ([2]; AKD′ culture medium, nicotinic acid 40 μg/mL): 8
- nutritional requirement of the strain [3]: require

Compound: CC(=O)SCCNC(=O)CCNC(=O)[C@H](O)C(C)(C)COP(=O)(O)OP(=O)(O)OC[C@H]1O[C@@H](n2cnc3c(N)ncnc32)[C@H](O)[C@@H]1OP(=O)(O)O [Acetyl-CoA]
- proliferation compared with YPD [4]: none of them reaching the proliferation level of YPD

Compound: Cc1ncc(CO)c(CO)c1O.Cl [pyridoxine, Pyridoxine hydrochloride]
- preferred concentration ([2]; AKD′ culture medium): around 400 μg/L
- proliferation at a content of 0 [2]: A fair degree of proliferation
- nutritional requirement of the strain [3]: require

Compound: O=S(=O)([O-])[O-].[Zn+2] [Zn2+, zinc sulfate]
- nutritional requirement of the strain [5]: preferable for proliferation
- nutritional requirement of the strain [6]: preferable for proliferation

Compound: O=C(O)CCCC[C@@H]1SC[C@@H]2NC(=O)N[C@@H]21 [biotin]
- concentration at which proliferation was slightly inhibited ([2]; AKD′ culture medium): 200 µg/L
- preferred concentration ([2]; AKD′ culture medium): around 2 μg/L
- proliferation at a content of 0 [2]: Almost no proliferation
- nutritional requirement of the strain [3]: require
- nutritional requirement of the strain [5]: not require
- nutritional requirement of the strain [6]: require

Compound: CC(C)(COP(=O)(O)OP(=O)(O)OC[C@H]1O[C@@H](n2cnc3c(N)ncnc32)[C@H](O)[C@@H]1OP(=O)(O)O)[C@@H](O)C(=O)NCCC(=O)NCCS [CoA]
- proliferation compared with YPD [4]: none of them reaching the proliferation level of YPD

Compound: NC(=O)c1ccc[n+]([C@@H]2O[C@H](COP(=O)([O-])OP(=O)(O)OC[C@H]3O[C@@H](n4cnc5c(N)ncnc54)[C@H](O)[C@@H]3O)[C@@H](O)[C@H]2O)c1 [NAD]
- proliferation compared with YPD [4]: none of them reaching the proliferation level of YPD

Compound: O=C[C@H](O)[C@H](O)[C@H](O)CO [ribose]
- proliferation as carbon source [7]: no proliferation whatsoever

Compound: Cc1ncc(C[n+]2csc(CCO)c2C)c(N)n1 [thiamine, Thiamine hydrochloride]
- preferred concentration ([2]; AKD′ culture medium): around 400 μg/L
- proliferation at a content of 0 [2]: A fair degree of proliferation
- nutritional requirement of the strain [3]: require
- nutritional requirement of the strain [5]: require

Compound: CC(C)C[C@H](N)C(=O)O [Leucine, L-Leucine]
- concentration at which almost no proliferation was observed [8]: less than 0.001%
- concentration at which proliferation reached a maximum value [8]: 0.1%
- concentration at which proliferation was inhibited [8]: 1%
- preferred concentration ([8]; from results with RAK778 and RAK3599 strains): around 0.1%
- concentration at which proliferation was inhibited [9]: 1%

Compound: OCC(O)CO [glycerol]
- proliferation as carbon source [1]: almost no proliferation

Compound: OC[C@H]1O[C@H](O[C@H]2O[C@H](CO)[C@@H](O)[C@H](O)[C@H]2O)[C@H](O)[C@@H](O)[C@@H]1O [trehalose]
- proliferation as carbon source [7]: no proliferation whatsoever

Compound: N[C@@H](CC(=O)[O-])C(=O)[O-].O.[Na+].[Na+] [Aspartic acid, L-Aspartic acid sodium salt monohydrate]
- proliferation when added singly as nitrogen source [10]: favorable proliferation
- proliferation compared with ammonium sulfate-added culture medium [11]: proliferation markedly improved over that of a culture medium to which ammonium sulfate had been added
